The record followed here is ChEMBL document CHEMBL1201862, “PubChem BioAssay data set” (2004).

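Each compound was tested at five concentrations against cells in 96-well plates for 48 hours. Here, GI50 denotes the concentration required for 50% inhibition of growth.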 The source made the active and inactive calls. Cut-off read from the data, not from the text of the source: active = GI50 up to about 1.1 µM and inactive = higher.

Test systems include NCI-H460; HOP-92; PC-3; COLO 205; ACHN; LOX IMVI; HCT-15; A498; MDA-MB-231; OVCAR-5; HCC 2998; HCT-116; A549; T47D; IGROV-1; SK-OV-3; MOLT-4; SNB-75; SNB-19; Hs-578T.
Common to all, as to assay: NCI anticancer screen, dose series, 48 h

`COCCN(C(=O)c1ccccc1)C1CCC(=O)c2[nH]c3ccccc3c21` (stereo not given): the GI50 in the assay on NCI-H460 was 12.8 µM (inactive); with HOP-92, 12.1 µM (inactive); in the assay with PC-3, 5.25 µM (inactive); in the assay on COLO 205, 15.5 µM (inactive); with ACHN, 16.7 µM (inactive); with LOX IMVI, > 21.1 µM (inactive). The GI50 in the assay with HCT-15 was 16.4 µM; in the assay with A498, 19.1 µM (inactive); with MDA-MB-231 it was 4.23 µM (inactive); in the assay with OVCAR-5, 16.9 µM (inactive); in the assay with HCC 2998, 17.1 µM (inactive); with HCT-116, 13.1 µM (inactive). The GI50 in the assay with A549 is 15.6 µM (inactive); in the assay on T47D, 16.2 µM (inactive); with IGROV-1, 3.65 µM (inactive); with SK-OV-3 it was 15.5 µM (inactive); in the assay on MOLT-4, 6.64 µM (inactive); in the assay on SNB-75 it was 5.62 µM (inactive). Moreover, the GI50 is 11.2 µM (inactive) in the assay with SNB-19 and 15.5 µM (inactive) in the assay with Hs-578T.
